{"source": "ChEMBL document CHEMBL1649470", "about": "(Antimicrob Agents Chemother, 2009)", "key": {"Influenza A virus [1]": {"test_system": "Influenza A virus", "test": "Antiviral activity against Influenza A virus (A/chicken/Yogjakarta/BBVet-IX/2004(H5N1)) infected in BALB/c mouse assessed as virus-induced change body weight at 20 mg/kg, po BID for 5 days measured on day 9 postinfection", "format": "functional"}, "Influenza A virus [2]": {"test_system": "Influenza A virus", "test": "Antiviral activity against Influenza A virus (A/Thailand/1(KAN-1)/2004(H5N1)) infected in BALB/c mouse assessed as virus-induced change body weight at 20 mg/kg, po BID for 5 days measured on day 15 postinfection", "format": "functional"}, "Influenza A virus [3]": {"test_system": "Influenza A virus", "conditions": "120 h, route oral"}, "Influenza A virus [4]": {"test_system": "Influenza A virus", "test": "Antiviral activity against Influenza A virus (A/Thailand/1(KAN-1)/2004(H5N1)) infected in BALB/c mouse assessed as survival rate at 20 mg/kg, po BID for 5 days measured post last dose", "format": "functional", "conditions": "120 h"}, "Influenza A virus [5]": {"test_system": "Influenza A virus", "test": "Antiviral activity against Influenza A virus (A/chicken/Yogjakarta/BBVet-IX/2004(H5N1)) infected in BALB/c mouse assessed as decrease in viral load in brain at 20 mg/kg, po BID for 5 days measured on day 9 postinfection", "format": "functional, organism-based", "parameters": "dose 20 mg/kg"}, "Influenza A virus [6]": {"test_system": "Influenza A virus", "conditions": "dose 20 mg/kg; route oral"}, "Influenza A virus [7]": {"test_system": "Influenza A virus", "test": "Antiviral activity against Influenza A virus (A/chicken/Yogjakarta/BBVet-IX/2004(H5N1)) infected in BALB/c mouse assessed as mean day to death at 20 mg/kg, po BID for 5 days measured post last dose", "format": "functional"}, "Influenza A virus [8]": {"test_system": "Influenza A virus", "test": "Antiviral activity against Influenza A virus (A/chicken/Yogjakarta/BBVet-IX/2004(H5N1)) infected in BALB/c mouse assessed as virus-induced change body weight at 20 mg/kg, po BID for 5 days measured on day 15 postinfection", "format": "functional"}, "Influenza A virus [9]": {"test_system": "Influenza A virus", "test": "Antiviral activity against Influenza A virus (A/Thailand/1(KAN-1)/2004(H5N1)) infected in BALB/c mouse assessed as decrease in viral load in brain at 20 mg/kg, po BID for 5 days measured on day 9 postinfection", "format": "functional, organism-based", "parameters": "dose 20 mg/kg"}, "Influenza A virus [10]": {"test_system": "Influenza A virus", "test": "Antiviral activity against Influenza A virus (A/Thailand/1(KAN-1)/2004(H5N1)) infected in BALB/c mouse assessed as virus-induced change body weight at 20 mg/kg, po BID for 5 days measured on day 9 postinfection", "format": "functional"}, "Influenza A virus [11]": {"test_system": "Influenza A virus", "test": "Antiviral activity against Influenza A virus (A/whooper swan/Mongolia/1/2009(H5N1)) infected in BALB/c mouse assessed as mean day to death at 20 mg/kg, po BID for 5 days measured post last dose", "format": "functional"}, "Influenza A virus [12]": {"test_system": "Influenza A virus", "test": "Antiviral activity against Influenza A virus (A/duck/Laos/25/2006(H5N1)) infected in BALB/c mouse assessed as virus-induced change body weight at 20 mg/kg, po BID for 5 days measured on day 6 postinfection", "format": "functional"}, "Influenza A virus [13]": {"test_system": "Influenza A virus", "test": "Antiviral activity against Influenza A virus (A/whooper swan/Mongolia/1/2009(H5N1)) infected in BALB/c mouse assessed as survival rate at 20 mg/kg, po BID for 5 days measured post last dose", "format": "functional", "conditions": "120 h"}, "Influenza A virus [14]": {"test_system": "Influenza A virus", "test": "Antiviral activity against Influenza A virus (A/Thailand/1(KAN-1)/2004(H5N1)) infected in BALB/c mouse assessed as decrease in viral load in lung at 20 mg/kg, po BID for 5 days measured on day 6 postinfection", "format": "functional, organism-based", "parameters": "dose 20 mg/kg"}, "Influenza A virus [15]": {"test_system": "Influenza A virus", "test": "Antiviral activity against Influenza A virus (A/chicken/Yogjakarta/BBVet-IX/2004(H5N1)) infected in BALB/c mouse assessed as virus-induced change body weight at 20 mg/kg, po BID for 5 days measured on day 6 postinfection", "format": "functional"}, "Influenza A virus [16]": {"test_system": "Influenza A virus", "test": "Antiviral activity against Influenza A virus (A/whooper swan/Mongolia/1/2009(H5N1)) infected in BALB/c mouse assessed as decrease in viral load in brain at 20 mg/kg, po BID for 5 days measured on day 9 postinfection", "format": "functional, organism-based", "parameters": "dose 20 mg/kg"}, "Influenza A virus [17]": {"test_system": "Influenza A virus", "conditions": "dose 20 mg/kg; route oral", "remark": "listed apart in the source"}, "Influenza A virus [18]": {"test_system": "Influenza A virus", "test": "Antiviral activity against Influenza A virus (A/Thailand/1(KAN-1)/2004(H5N1)) infected in BALB/c mouse assessed as decrease in viral load in lung at 20 mg/kg, po BID for 5 days measured on day 9 postinfection", "format": "functional, organism-based", "parameters": "dose 20 mg/kg"}, "Influenza A virus [19]": {"test_system": "Influenza A virus", "test": "Antiviral activity against Influenza A virus (A/whooper swan/Mongolia/1/2009(H5N1)) infected in BALB/c mouse assessed as virus-induced change body weight at 20 mg/kg, po BID for 5 days measured on day 9 postinfection", "format": "functional"}, "Influenza A virus [20]": {"test_system": "Influenza A virus", "test": "Antiviral activity against Influenza A virus (A/Thailand/1(KAN-1)/2004(H5N1)) infected in BALB/c mouse assessed as mean day to death at 20 mg/kg, po BID for 5 days measured post last dose", "format": "functional"}, "Influenza A virus [21]": {"test_system": "Influenza A virus", "test": "Antiviral activity against Influenza A virus (A/whooper swan/Mongolia/1/2009(H5N1)) infected in BALB/c mouse assessed as decrease in viral load in lung at 20 mg/kg, po BID for 5 days measured on day 9 postinfection", "format": "functional, organism-based", "parameters": "dose 20 mg/kg"}, "Influenza A virus [22]": {"test_system": "Influenza A virus", "test": "Antiviral activity against Influenza A virus (A/duck/Laos/25/2006(H5N1)) infected in BALB/c mouse assessed as virus-induced change body weight at 20 mg/kg, po BID for 5 days measured on day 15 postinfection", "format": "functional"}, "Influenza A virus [23]": {"test_system": "Influenza A virus", "test": "Antiviral activity against Influenza A virus (A/duck/Laos/25/2006(H5N1)) infected in BALB/c mouse assessed as mean day to death at 20 mg/kg, po BID for 5 days measured post last dose", "format": "functional"}, "Influenza A virus [24]": {"test_system": "Influenza A virus", "test": "Antiviral activity against Influenza A virus (A/duck/Laos/25/2006(H5N1)) infected in BALB/c mouse assessed as virus-induced change body weight at 20 mg/kg, po BID for 5 days measured on day 9 postinfection", "format": "functional"}, "Influenza A virus [25]": {"test_system": "Influenza A virus", "test": "Antiviral activity against Influenza A virus (A/duck/Laos/25/2006(H5N1)) infected in BALB/c mouse assessed as decrease in viral load in lung at 20 mg/kg, po BID for 5 days measured on day 3 postinfection", "format": "functional, organism-based", "parameters": "dose 20 mg/kg"}, "Influenza A virus [26]": {"test_system": "Influenza A virus", "test": "Antiviral activity against Influenza A virus (A/whooper swan/Mongolia/1/2009(H5N1)) infected in BALB/c mouse assessed as virus-induced change body weight at 20 mg/kg, po BID for 5 days measured on day 6 postinfection", "format": "functional"}, "Influenza A virus [27]": {"test_system": "Influenza A virus", "test": "Antiviral activity against Influenza A virus (A/Thailand/1(KAN-1)/2004(H5N1)) infected in BALB/c mouse assessed as virus-induced change body weight at 20 mg/kg, po BID for 5 days measured on day 6 postinfection", "format": "functional"}, "Influenza A virus [28]": {"test_system": "Influenza A virus", "test": "Antiviral activity against Influenza A virus (A/duck/Laos/25/2006(H5N1)) infected in BALB/c mouse assessed as survival rate at 20 mg/kg, po BID for 5 days measured post last dose", "format": "functional", "conditions": "120 h"}, "Influenza A virus [29]": {"test_system": "Influenza A virus", "test": "Antiviral activity against Influenza A virus (A/whooper swan/Mongolia/1/2009(H5N1)) infected in BALB/c mouse assessed as decrease in viral load in brain at 20 mg/kg, po BID for 5 days measured on day 3 postinfection", "format": "functional, organism-based", "parameters": "dose 20 mg/kg"}, "Influenza A virus [30]": {"test_system": "Influenza A virus", "test": "Antiviral activity against Influenza A virus (A/chicken/Yogjakarta/BBVet-IX/2004(H5N1)) infected in BALB/c mouse assessed as decrease in viral load in lung at 20 mg/kg, po BID for 5 days measured on day 9 postinfection", "format": "functional, organism-based", "parameters": "dose 20 mg/kg"}, "Influenza A virus [31]": {"test_system": "Influenza A virus", "test": "Antiviral activity against Influenza A virus (A/whooper swan/Mongolia/1/2009(H5N1)) infected in BALB/c mouse assessed as virus-induced change body weight at 20 mg/kg, po BID for 5 days measured on day 15 postinfection", "format": "functional"}, "Influenza A virus [32]": {"test_system": "Influenza A virus", "test": "Antiviral activity against Influenza A virus (A/chicken/Yogjakarta/BBVet-IX/2004(H5N1)) infected in BALB/c mouse assessed as survival rate at 20 mg/kg, po BID for 5 days measured post last dose", "format": "functional", "conditions": "120 h"}, "Influenza A virus [33]": {"test_system": "Influenza A virus", "test": "Antiviral activity against Influenza A virus (A/whooper swan/Mongolia/1/2009(H5N1)) infected in BALB/c mouse assessed as decrease in viral load in brain at 20 mg/kg, po BID for 5 days measured on day 6 postinfection", "format": "functional, organism-based", "parameters": "dose 20 mg/kg"}, "Influenza A virus [34]": {"test_system": "Influenza A virus", "test": "Antiviral activity against Influenza A virus (A/duck/Laos/25/2006(H5N1)) infected in BALB/c mouse assessed as decrease in viral load in brain at 20 mg/kg, po BID for 5 days measured on day 9 postinfection", "format": "functional, organism-based", "parameters": "dose 20 mg/kg"}}, "note": "Calls of active or inactive are those of the source. The calls are words filed in the database; no cut-off is given here."}
{"smiles": "CCOC(=O)C1=C[C@@H](OC(CC)CC)[C@H](NC(C)=O)[C@@H](N)C1", "note": "[OSELTAMIVIR]", "values": [{"measurement": "Activity", "setting": "Influenza A virus [1]", "value": -11.2, "unit": "%"}, {"measurement": "Activity", "setting": "Influenza A virus [2]", "value": -2.1, "unit": "%"}, {"measurement": "survival at 20 mg/kg", "setting": "Influenza A virus [3]", "value": 0, "unit": "%"}, {"measurement": "survival at 20 mg/kg", "setting": "Influenza A virus [4]", "value": 80, "unit": "%"}, {"measurement": "Activity", "setting": "Influenza A virus [5]", "value": "Active"}, {"measurement": "Time", "setting": "Influenza A virus [6]", "value": 8, "unit": "days"}, {"measurement": "Time", "setting": "Influenza A virus [7]", "value": ">21", "unit": "days"}, {"measurement": "Activity", "setting": "Influenza A virus [8]", "value": 1.2, "unit": "%"}, {"measurement": "Activity", "setting": "Influenza A virus [9]", "value": "inactive"}, {"measurement": "Activity", "setting": "Influenza A virus [10]", "value": -17.6, "unit": "%"}, {"measurement": "Time", "setting": "Influenza A virus [11]", "value": 9.7, "unit": "days"}, {"measurement": "Activity", "setting": "Influenza A virus [12]", "value": -0.2, "unit": "%"}, {"measurement": "survival at 20 mg/kg", "setting": "Influenza A virus [13]", "value": 70, "unit": "%"}, {"measurement": "Activity", "setting": "Influenza A virus [14]", "value": "Active"}, {"measurement": "Activity", "setting": "Influenza A virus [15]", "value": -22, "unit": "%"}, {"measurement": "Activity", "setting": "Influenza A virus [16]", "value": "inactive"}, {"measurement": "Activity", "setting": "Influenza A virus [17]", "value": -24.4, "unit": "%"}, {"measurement": "Activity", "setting": "Influenza A virus [18]", "value": "Active"}, {"measurement": "Activity", "setting": "Influenza A virus [19]", "value": -18.2, "unit": "%"}, {"measurement": "Time", "setting": "Influenza A virus [20]", "value": 10, "unit": "days"}, {"measurement": "Activity", "setting": "Influenza A virus [21]", "value": "Active"}, {"measurement": "Activity", "setting": "Influenza A virus [22]", "value": -7.6, "unit": "%"}, {"measurement": "Time", "setting": "Influenza A virus [23]", "value": 13.5, "unit": "days"}, {"measurement": "Activity", "setting": "Influenza A virus [24]", "value": -20.3, "unit": "%"}, {"measurement": "inhibition", "setting": "Influenza A virus [25]", "value": "Active"}, {"measurement": "Activity", "setting": "Influenza A virus [26]", "value": -7, "unit": "%"}, {"measurement": "Activity", "setting": "Influenza A virus [27]", "value": -10.7, "unit": "%"}, {"measurement": "survival at 20 mg/kg", "setting": "Influenza A virus [28]", "value": 60, "unit": "%"}, {"measurement": "Activity", "setting": "Influenza A virus [29]", "value": "inactive"}, {"measurement": "Activity", "setting": "Influenza A virus [30]", "value": "Active"}, {"measurement": "Activity", "setting": "Influenza A virus [31]", "value": -10.6, "unit": "%"}, {"measurement": "survival at 20 mg/kg", "setting": "Influenza A virus [32]", "value": 100, "unit": "%"}, {"measurement": "Activity", "setting": "Influenza A virus [33]", "value": "inactive"}, {"measurement": "Activity", "setting": "Influenza A virus [34]", "value": "Active"}]}
